The values that follow come from US9763963B2, “Topically active steroids for use in interstitial pulmonary fibrosis” (Soligenix, Inc., priority 2008, dated 2017).

Data set [1] can be described thus: BDP and 17-BMP in plasma of right atrial blood after oral BDP. The settings on record: oral BDP 2 mg.
Experimental: Pharmacokinetic parameters were calculated using WinNonlin v. […] Plasma concentration-time data were plotted and non-compartmental parameters were calculated using the linear trapezoidal rule. Estimates for half-lives were obtained using regression analysis by specifying an appropriate range of time points for the most linear portions of the log concentration-linear time data.
A short description of data set [2]: bioavailability study of oral BDP, given orally and intravenously to 12 healthy subjects.
Data set [3] concerns gastrointestinal graft-versus-host disease (GVHD). As to conditions: cited from earlier work.
Data set [4] relates to pulmonary function (FVC, FEV1, TLC, DLCO). Put plainly: pulmonary function testing after allogeneic HCT, oral BDP versus placebo. Type of data set: in vivo, human. The text has this: Patients whose symptoms were controlled at study day ten continued on study drug while the prednisone dose was rapidly tapered. Patients whose symptoms required additional prednisone were considered treatment failures. Study drug was discontinued on the day of treatment failure. The duration of treatment with study drug was 30 days with a 10-day follow-up period in the first trial and 50 days with a 30-day follow-up period in the second trial.
Pulmonary function assessments included forced vital capacity (FVC), one-second forced expiratory volume (FEV1), total lung capacity (TLC), and carbon monoxide diffusion capacity (DLCO), which was adjusted for hemoglobin level at the time PFTs were obtained. All PFT values were expressed as a percent of the predicted value calculated according to published equations (Crapo R O et al., Am Rev Respir Dis, 1981; 123:659-664; Crapo R O et al., Am Rev Respir Dis, 1981; 123:185-189). Pretransplantation and Day 80 PFTs were obtained, regardless of the presence or absence of symptoms. After discharge, patients were encouraged to return at one year after transplantation, at which time another PFT was obtained. For purposes of the current study, PFTs performed between days 60 and 100 were considered as valid for the Day 80 PFT and tests performed between days 265 and 465 as valid for the one-year PFT. Change in lung function was assessed by comparing PFT parameters performed prior to start of conditioning to those obtained post-transplantation at Day 80 and one year. Analysis of change in lung function was done on an intent-to-treat basis, by randomization assignment to oral BDP or placebo, with maintenance of the study blind.

The test system of a further data set is pulmonary infection. Put plainly: pulmonary infections after randomization (record review). Format: in vivo, human. An excerpt: (§1) While blinded to randomization assignment, investigators reviewed all patients' pulmonary radiologic records accumulated from the time of randomization to one year after transplantation. The medical records of all patients with abnormal pulmonary radiological findings were reviewed to determine whether the pulmonary disease was a clinically significant noninfectious or infectious syndrome. Clinically significant noninfectious pulmonary syndromes included idiopathic pneumonia syndrome (IPS), defined as widespread alveolar injury in the absence of active lower respiratory tract infection after HCT (Freudenberger T D et al., Blood, 2003; 102:3822-3828, diffuse alveolar hemorrhage (DAH), defined as IPS with bronchioalveolar lavage showing progressively bloodier return, or biopsy-proven cryptogenic organizing pneumonia (COP) otherwise known as bronchiolitis obliterans organizing pneumonia (BOOP). Clinically significant pulmonary infection required microbiologic documentation of an infectious agent in the respiratory tract via bronchoscopy or resolution of pulmonary abnormalities after empirical antibiotic therapy with no addition of immunosuppressive agents.

The subject of data set [5] is noninfectious pulmonary complications. Put plainly: noninfectious pulmonary complications after randomization (record review). Format: in vivo, human.
Text: as §1

The mark [6] stands for this setting: pre-HCT baseline to transplant day 80.

Values joined by “and” are separate entries in the source; they are usually repeats but may differ in a detail not shown here. Equal values may be shown once.

`CCC(=O)O[C@]1(C(=O)CO)[C@@H](C)C[C@H]2[C@@H]3CCC4=CC(=O)C=C[C@]4(C)[C@@]3(Cl)[C@@H](O)C[C@@]21C` [17-BMP, 17-beclomethasone monopropionate]: the “time of peak concentration in right atrial blood, median” value in data set [1] (study Day 50, four patients) is 1.5 h. This molecule returned a median half-life in data set [1] (study Day 50, range 3.1-6.8) of 6.3 h. Also, the “median Cm” value in data set [1] (study Day 50, range 632-3701) is 1738 pg/mL. Moreover, the total oral bioavailability in data set [2] (active metabolite after oral BDP, unpublished data) is given as 21-41%.

In the case of beclomethasone 17,21-dipropionate [BDP], in data set [3] (80-day study period, placebo 12/67 (18%)), the “patients who developed noninfectious pulmonary infiltrative disorders” value is 0/62. The multiple bacteremic episodes result in data set [3] (most recent trial, placebo 9%) is “none”. Besides, the fungal infections in data set [3] (most recent trial, placebo 14%) is on record as 7%. Besides, in data set [3] (most recent trial, placebo 39%), the cytomegalovirus reactivations is 28%. Also, the “reduction in mortality risk” value in data set [3] (one-year post-randomization) was 45%. In addition, the “DLCO: mean decrease from baseline to one year” value in data set [4] (32 patients with data, placebo 15.27%, p=0.11) was found to be 7.67%. In data set [4] (mean, n = 33), the “DLCO, pulmonary function at one year” value is recorded as 78.1% of predicted normal values; the “FEV1, pulmonary function at one year” value was 85.9% of predicted normal values; the “FVC, pulmonary function at one year” value is reported as 89.4% of predicted normal values; the “TLC, pulmonary function at one year” value is 95.7% of predicted normal values. The “DLCO, pulmonary function at Day 80” value in data set [4] (mean, n = 54) is 86.0% of predicted normal values. In addition, the “TLC, pulmonary function at Day 80” value in data set [4] (mean, n = 55) is 96.9% of predicted normal values. In data set [4] (mean, n = 56), the “FEV1, pulmonary function at Day 80” value is 90.3% of predicted normal values and the “FVC, pulmonary function at Day 80” value is on record as 93.8% of predicted normal values. Also, in data set [4] (pre-HCT baseline to day 80, percent of predicted, range −22, +34, p 0.48), the “FEV1: mean change” value is listed as −0.05. The “TLC: mean change” value in data set [4] (pre-HCT baseline to day 80, percent of predicted, range −25, +57, p 0.23) is given as “+1.41”. In data set [4] (pre-HCT baseline to day 80, percent of predicted, range −30, +35, p 0.26), the “FVC: mean change” value was “+0.34”. Moreover, in data set [4] (setting [6]), the “FEV1: % of patients who experienced a decrease” value was “(50) %”, the “FVC: % of patients who experienced a decrease” value was “(50) %” and the “TLC: % of patients who experienced a decrease” value is “(58) %”. Also, the “DLCO: N, proportion of patients who experienced a decrease” value in data set [4] (pre-HCT baseline to transplant day 80, p 0.02) was 27 of 49 and 27/49. For the same molecule, the “FVC: N, proportion of patients who experienced a decrease” value in data set [4] (pre-HCT baseline to transplant day 80, p 0.66) is 25/50. Besides, the “FEV1: N, proportion of patients who experienced a decrease” value in data set [4] (pre-HCT baseline to transplant day 80, p 0.83) is listed as 25/50. The “TLC: N, proportion of patients who experienced a decrease” value in data set [4] (pre-HCT baseline to transplant day 80, p 0.88) was 29/50. In addition, the “cases of pulmonary infection” value in the data set on pulmonary infection (first 200 days after randomization) was 6. In the data set on pulmonary infection (first year after randomization, 60 patients, placebo 11), the “cases of pulmonary infection” value was 8. The “share of first-year pulmonary infections that occurred in the first 200 days” value in the data set with pulmonary infection (in vivo) is recorded as 75%. In data set [2] (oral BDP 2 mg), the “intravenous dexamethasone dose of equivalent systemic exposure” value was “less than 1 mg” and the “oral prednisone dose of equivalent systemic exposure” value turned out to be 2.5 mg. For the same molecule, the noninfectious events result in data set [5] (after Day 200) is listed as “four”. The “cases of noninfectious pulmonary complications” value in data set [5] (first 200 days after randomization, 60 patients, placebo four) is given as “no cases”. Besides, the “day of noninfectious event” value in data set [5] (in order: COP/BOOP, IPS, bronchiolitis obliterans syndrome, DAH) is 207 days and 212 days and 244 days and 269 days.
